The text below walks through data of patent US9775856B2, “C-glycosylpolyphenol antidiabetic agents, effect on glucose tolerance and interaction with beta-amyloid. therapeutic applications of the synthesized agent(s) and of Genista tenera ethyl acetate extracts containing some of those agents” (FACULDADE DE CIENCIAS DA UNIVERSIDADE DE LISBOA, priority 2012, dated 2017).

≈ marks a conversion by molar mass, not a printed value.

Data set [1] relates to mouse HII4E hepatoma cells. As to the kind of experiment: In vitro acute toxicity, MTT cell viability assay. The data set is classed as cell-based. The settings on record: 24 h exposure. As to the method: Acute cytotoxicity measurements were performed by the MTT method. The 3-(4,5-dimethylthiazol-2-yl)-2,5-diphenyltetrazolium bromide (MTT) assay was used to quantify metabolically viable cells in all samples. Adherent cells (mouse HII4E hepatoma cells) were seeded onto 96-well plates, allowed to attach for 24 h and exposed to the test compound for the following 24 h. Positive control (hydrogen peroxide), negative control (DMSO) and chloramphenicol were also included. At 48 h of culture, MTT was added to the cells at a final concentration of 0.5 mg/mL, followed by an incubation period of 3 h to allow the formazan crystals to form. After incubation, medium was removed, cells were washed twice to remove traces of medium and un-metabolized MTT, and DMSO (100 μL) was added to each well. Solubilisation of formazan crystals was performed by agitation in a 96-well plate shaker for 20 min at room temperature. Absorbance of each well was quantified at 550 nm, using 620 nm as reference wavelength on a scanning multiwell spectrophotometer (automated microplate reader).

Data set [2] has as its system STZ induced diabetic Wistar rats. The settings on record: previous research work; cited from earlier work.
Data set [3] in a line: 1H-NMR 2D DOSY diffusion coefficient. The settings on record: DOSY spectrum acquired on the G. tenera extract at 25° C. The data set is classed as physicochemical.
Protocol: NMR experiments were recorded on a Varian 400-MHz Mercury instrument. The basic VARIAN sequences were employed for 2D-TOCSY, 2D-NOESY, ^13C-HSQC, DOSY and STD experiments. […] A ^1H spectrum was acquired with a recycle delay of 60 s to achieve the complete relaxation of all the resonances at each scan.
A short description of the next data set: Solubility in PBS. The settings on record: pure compound in PBS. In kind it is physicochemical.
A further data set deals with T1, Aβ1-42 oligomers (Homo sapiens, UniProt P05067).
T1 construct: lyophilized Aβ1-42 was dissolved in 10 mM NaOD in D2O at a concentration of 160 μM
T1 sequence (P05067 672-713): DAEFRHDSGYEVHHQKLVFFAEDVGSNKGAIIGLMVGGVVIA
As to the kind of experiment: NMR binding studies (STD-NMR, trNOESY) with beta-amyloid oligomers. As to conditions: Aβ1-42 80 uM, deuterated PBS pH 7.5.

As usually defined, the IC50 is the concentration needed to halve the response being measured. A lower IC50 goes with greater potency.

Protocol for Aβ1-42 oligomers: The selection was made through sample characterization by NMR spectroscopy, as previously described Immediately before use, lyophilized Aβ1-42 was dissolved in 10 mM NaOD in D2O at a concentration of 160 μM, then diluted 1:1 with 10 mM phosphate buffer saline, pH 7.4 containing 100 mM NaCl (PBS) and ethyl acetate extract of G. tenera or one of the tested compounds. […] The pH of each sample was verified with a Microelectrode (Mettler Toledo) for 5 mm NMR tubes and adjusted with NaOD and/or DCl. All pH values were corrected for isotope effect.
NMR experiments were recorded on a Varian 400-MHz Mercury instrument. The basic VARIAN sequences were employed for 2D-TOCSY, 2D-NOESY, ^13C-HSQC, DOSY and STD experiments. For STD, a train of Gaussian-shaped pulses each of 50 ms was employed to saturate selectively the protein envelope; the total saturation time of the protein envelope was adjusted by the number of shaped pulses and was varied between 3 s and 0.3 s. A ^1H spectrum was acquired with a recycle delay of 60 s to achieve the complete relaxation of all the resonances at each scan.

The compound `O=C(N[C@H](CO)[C@H](O)c1ccc([N+](=O)[O-])cc1)C(Cl)Cl` [Chloramphenicol, chloramphenicol] displayed an IC50 in data set [1] of 143 mg/L (≈ 443 µM). As for `COc1cc(-c2cc(=O)c3c(O)cc(O)cc3o2)ccc1O` [chrysoeriol], the “blood glucose levels” value in data set [2] was “significantly lowered blood glucose levels”. Take `O=c1c(-c2ccc(O)cc2)coc2cc(O[C@@H]3O[C@H](CO)[C@@H](O)[C@H](O)[C@H]3O)cc(O)c12` [genistein-7-O-glucoside, Genistein 7-O-β-D-glucoside]: in data set [3], the diffusion coefficient was 2.65±0.035 10^−10 m^2/s. Also, the “solubility in PBS” value in the data set “Solubility in PBS” is recorded as “insolubility”. Regarding `OO` [Compound H2O2, hydrogen peroxide], in data set [1], the “IC50 in vitro acute toxicity” value was found to be 2 mg/L (≈ 58.8 µM). In the case of `O=c1cc(-c2ccc(O)cc2)oc2cc(O)cc(O)c12` [apigenin], the “blood glucose levels” value in data set [2] is recorded as “significantly lowered blood glucose levels”. In the case of `O=c1c(-c2ccc(O)cc2)coc2cc(O)cc(O)c12` [genistein], the “blood glucose levels” value in data set [2] was “significantly lowered blood glucose levels”. Moreover, on Aβ1-42 oligomers, the “binding to Aβ1-42 oligomers (STD-NMR, trNOESY), words” value is “efficient Aβ oligomer ligand”. As to `C[S+](C)[O-]` [DMSO], in data set [1], the “IC50 in vitro acute toxicity” value amounted to 199 mg/L (≈ 2550 µM).
